Active and inactive are the calls of the source.
Key:
NCI-H1975 [1] = assay: Induction of DNA damage in human NCI-H1975 cells at 1 nM incubated for 24 hrs by immunofluorescence based analysis; type: functional, cell-based; details: tested as the 2H-labelled form
NCI-H1975 [2] = assay: Anti-migration activity in human NCI-H1975 cells assessed as decrease in N-cadherin level upto 10 nM incubated for 2 to 4 hrs by Western blot analysis; type: functional, cell-based; details: time 2-4 hrs, tested as the 2H-labelled form
Mus musculus = assay: In vivo inhibition of EGFR phosphorylation in human NCI-H1975 cells xenografted in BALB/c-nu mouse at 15 to 30 mg/kg, po administered daily orally for 21 days by IHC analysis; type: functional, organism-based; details: dose 15-30 mg/kg, time 21.0 day, tested as the 2H-labelled form
[3] = biological target: ALK tyrosine kinase receptor (Homo sapiens) (UniProt Q9UM73); assay: Inhibition of ALK phosphorylation in human NCI-H2228 cells at 25 to 50 nM incubated for 12 hrs by immunofluorescence based analysis; type: cell-based; details: dose 25-50 nM, tested as the 2H-labelled form
NCI-H1975 [4] = assay: Anti-migration activity in human NCI-H1975 cells assessed as increase in E-cadherin level upto 10 nM incubated for 2 to 4 hrs by Western blot analysis; type: functional, cell-based; details: time 2-4 hrs, tested as the 2H-labelled form
NCI-H1975 [5] = assay: Induction of mitochondrial membrane potential in human NCI-H1975 cells assessed as reduction in red fluorescence at 5 nM by JC-1 dye based analysis; type: functional, cell-based; details: tested as the 2H-labelled form
[6] = biological target: ALK tyrosine kinase receptor (Homo sapiens) (UniProt Q9UM73); assay: Inhibition of ALK phosphorylation in human NCI-H2228 cells upto 10 nM incubated for 2 to 4 hrs by Western blot analysis; type: cell-based; details: time 2-4 hrs, tested as the 2H-labelled form
NCI-H1975 [7] = assay: Downregulation of LANCL1 expression in human NCI-H1975 cells; type: functional, cell-based; details: tested as the 2H-labelled form
NCI-H1975 [8] = assay: Anti-migration activity in human NCI-H1975 cells incubated for 24 hrs by scratch-wound assay; type: functional, cell-based; details: dose 5.0 nM, tested as the 2H-labelled form
NCI-H1975 [9] = assay: Induction of cell cycle arrest in human NCI-H1975 cells assessed as decrease in cyclin D1 level upto 10 nM incubated for 2 to 4 hrs by Western blot analysis; type: functional, cell-based; details: time 2-4 hrs, tested as the 2H-labelled form
NCI-H1975 [10] = assay: Induction of DNA damage in human NCI-H1975 cells assessed as increase in pH2AX level upto 10 nM incubated for 2 to 4 hrs by Western blot analysis; type: functional, cell-based; details: time 2-4 hrs, tested as the 2H-labelled form
NCI-H1975 [11] = assay: Downregulation of ERAP2 expression in human NCI-H1975 cells; type: functional, cell-based; details: tested as the 2H-labelled form
NCI-H1975 [12] = assay: Anti-invasive activity in human NCI-H1975 cells incubated for 48 hrs by transwell assay; type: functional, cell-based; details: dose 1-10 nM, tested as the 2H-labelled form
[13] = biological target: ALK tyrosine kinase receptor (Homo sapiens) (UniProt Q9UM73); assay: Inhibition of ALK in human NCI-H2228 cells assessed as decrease in pERK level upto 10 nM incubated for 2 to 4 hrs by Western blot analysis; type: cell-based; details: time 2-4 hrs, tested as the 2H-labelled form
NCI-H1975 [14] = assay: Induction of apoptosis in human NCI-H1975 cells assessed as decrease in BCL-2 level upto 10 nM incubated for 2 to 4 hrs by Western blot analysis; type: functional, cell-based; details: time 2-4 hrs, tested as the 2H-labelled form
[15] = biological target: ALK tyrosine kinase receptor (Homo sapiens) (UniProt Q9UM73); assay: Inhibition of ALK in human NCI-H2228 cells assessed as decrease in pAKT level upto 10 nM incubated for 2 to 4 hrs by Western blot analysis; type: cell-based; details: time 2-4 hrs, tested as the 2H-labelled form
NCI-H1975 [16] = assay: Induction of apoptosis in human NCI-H1975 cells assessed as decrease in BCL-XL level upto 10 nM incubated for 2 to 4 hrs by Western blot analysis; type: functional, cell-based; details: time 2-4 hrs, tested as the 2H-labelled form
NCI-H1975 [17] = assay: Downregulation of Tomm40 expression in human NCI-H1975 cells; type: functional, cell-based; details: tested as the 2H-labelled form
NCI-H1975 [18] = assay: Induction of apoptosis in human NCI-H1975 cells assessed as increase in cleaved caspase-3 level upto 10 nM incubated for 2 to 4 hrs by Western blot analysis; type: functional, cell-based; details: time 2-4 hrs, tested as the 2H-labelled form
NCI-H1975 [19] = assay: Inhibition of colony formation in human NCI-H1975 cells assessed as reduction in tumor cell size incubated for 24 hrs followed by medium replacement daily without compound measured after 14 days by crystal violet staining based analysis; type: functional; details: dose 1-10 nM, tested as the 2H-labelled form
NCI-H1975 [20] = assay: Induction of mitochondrial membrane potential in human NCI-H1975 cells assessed as increase in green fluorescence at 5 nM by JC-1 dye based analysis; type: functional, cell-based; details: tested as the 2H-labelled form
NCI-H1975 [21] = assay: Inhibition of colony formation in human NCI-H1975 cells assessed as reduction in tumor cell number incubated for 24 hrs followed by medium replacement daily without compound measured after 14 days by crystal violet staining based analysis; type: functional; details: dose 1-10 nM, tested as the 2H-labelled form

Sequence of ALK tyrosine kinase receptor (Homo sapiens) (Q9UM73 19-1620 limits assumed): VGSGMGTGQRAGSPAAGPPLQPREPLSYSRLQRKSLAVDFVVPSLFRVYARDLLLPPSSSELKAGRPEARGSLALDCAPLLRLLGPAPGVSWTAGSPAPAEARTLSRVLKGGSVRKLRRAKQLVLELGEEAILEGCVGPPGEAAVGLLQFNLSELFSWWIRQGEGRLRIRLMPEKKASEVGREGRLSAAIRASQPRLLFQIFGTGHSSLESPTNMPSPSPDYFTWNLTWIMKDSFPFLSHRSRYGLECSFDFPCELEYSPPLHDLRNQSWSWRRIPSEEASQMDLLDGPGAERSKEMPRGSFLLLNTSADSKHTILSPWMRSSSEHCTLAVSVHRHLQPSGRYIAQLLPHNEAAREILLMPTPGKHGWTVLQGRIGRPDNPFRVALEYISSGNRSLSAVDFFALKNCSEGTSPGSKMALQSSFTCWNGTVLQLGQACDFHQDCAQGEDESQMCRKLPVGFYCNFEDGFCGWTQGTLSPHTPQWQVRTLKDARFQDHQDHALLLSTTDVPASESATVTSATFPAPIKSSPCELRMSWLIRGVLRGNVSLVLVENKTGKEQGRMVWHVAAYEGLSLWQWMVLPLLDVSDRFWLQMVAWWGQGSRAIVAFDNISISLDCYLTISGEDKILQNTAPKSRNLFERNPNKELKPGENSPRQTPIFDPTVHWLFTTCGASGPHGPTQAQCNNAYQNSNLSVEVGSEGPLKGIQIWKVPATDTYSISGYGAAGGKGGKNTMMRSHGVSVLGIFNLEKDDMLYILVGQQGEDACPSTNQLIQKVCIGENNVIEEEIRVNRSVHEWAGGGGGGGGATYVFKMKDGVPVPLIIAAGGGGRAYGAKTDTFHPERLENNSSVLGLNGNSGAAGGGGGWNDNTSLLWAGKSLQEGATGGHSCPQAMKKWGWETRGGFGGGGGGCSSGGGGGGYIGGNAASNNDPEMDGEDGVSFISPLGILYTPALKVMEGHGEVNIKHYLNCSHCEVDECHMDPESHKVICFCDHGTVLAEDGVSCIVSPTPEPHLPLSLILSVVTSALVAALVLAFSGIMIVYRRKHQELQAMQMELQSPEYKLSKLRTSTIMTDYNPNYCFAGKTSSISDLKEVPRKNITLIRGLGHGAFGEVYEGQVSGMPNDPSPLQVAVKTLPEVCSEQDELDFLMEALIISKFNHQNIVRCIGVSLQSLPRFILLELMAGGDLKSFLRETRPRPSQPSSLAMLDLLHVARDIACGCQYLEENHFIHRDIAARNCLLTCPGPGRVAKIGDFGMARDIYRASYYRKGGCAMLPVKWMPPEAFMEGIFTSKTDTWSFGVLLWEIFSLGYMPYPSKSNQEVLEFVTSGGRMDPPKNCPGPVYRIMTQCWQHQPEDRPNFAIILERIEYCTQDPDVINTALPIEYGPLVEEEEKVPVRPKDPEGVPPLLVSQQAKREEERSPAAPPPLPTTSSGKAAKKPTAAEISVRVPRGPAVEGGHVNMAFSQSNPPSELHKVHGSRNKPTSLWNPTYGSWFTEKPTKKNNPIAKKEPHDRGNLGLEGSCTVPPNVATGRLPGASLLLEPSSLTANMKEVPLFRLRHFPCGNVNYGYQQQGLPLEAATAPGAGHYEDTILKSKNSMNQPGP

C=CC(=O)Nc1cc(Nc2ncc(Cl)c(Nc3ccccc3[S+]([O-])CC)n2)c(OC)cc1N(C)CCN(C)C (single isomer, unassigned; (-))
active: Activity (NCI-H1975 [1]) | Activity (NCI-H1975 [2]) | inhibition (Mus musculus) Active; Inhibitory Effect Was Observed Superior To That Of Osimertinib | inhibition [3] | Activity (NCI-H1975 [4]) | Activity (NCI-H1975 [5]) | inhibition [6] | Activity (NCI-H1975 [7]) | Activity (NCI-H1975 [8]) Dose-dependent-effect | Activity (NCI-H1975 [9]) | Activity (NCI-H1975 [10]) | Activity (NCI-H1975 [11]) | Activity (NCI-H1975 [12]) Dose-dependent-effect | inhibition [13] | Activity (NCI-H1975 [14]) | inhibition [15] | Activity (NCI-H1975 [16]) | Activity (NCI-H1975 [17]) | Activity (NCI-H1975 [18]) | inhibition (NCI-H1975 [19]) Dose-dependent-effect | Activity (NCI-H1975 [20]) | inhibition (NCI-H1975 [21]) Dose-dependent-effect

Reference: ChEMBL document CHEMBL6078700, “Synthesis of novel deuterated EGFR/ALK dual-target inhibitors and their activity against non-small cell lung cancer” (Eur J Med Chem, 2025)
